Assay results from ChEMBL document CHEMBL1201862, “PubChem BioAssay data set” (2004).
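96-well plates; 48 h exposure; 5 concentrations. Endpoints by linear interpolation between flanking doses. Not reached: highest tested concentration assigned. GI50 marks 50% less growth.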 Calls of active or inactive are those of the source. No stated cut-off is given here; in the data, active = GI50 up to about 1.1 µM and inactive = higher.

Legend:
Test in all cases: inhibition of tumour cell growth, NCI panel, 48 h
SK-MEL-28 = system: SK-MEL-28
T47D = system: T47D
TK-10 = system: TK-10
CCRF-CEM = system: CCRF-CEM
HOP-62 = system: HOP-62
KM12 = system: KM12
NCI-H522 = system: NCI-H522
SF-268 = system: SF-268
MCF7 = system: MCF7
SNB-19 = system: SNB-19
Malme-3M = system: Malme-3M
SF-295 = system: SF-295
RPMI-8226 = system: RPMI-8226
SK-MEL-5 = system: SK-MEL-5
UACC-257 = system: UACC-257
LOX IMVI = system: LOX IMVI
A549 = system: A549
EKVX = system: EKVX
786-0 = system: 786-0
UACC-62 = system: UACC-62

Measured: GI50

CCN(CC)CCN(C)CCc1ccc(Br)cc1
inactive: SK-MEL-28 41.7 µM | T47D > 100 µM | TK-10 > 100 µM | CCRF-CEM 51.8 µM | HOP-62 29.7 µM | KM12 51.2 µM | NCI-H522 69.3 µM | SF-268 > 100 µM | MCF7 48.8 µM | SNB-19 > 100 µM | Malme-3M > 100 µM | SF-295 51.5 µM | RPMI-8226 > 100 µM | SK-MEL-5 17.2 µM | UACC-257 37.6 µM | LOX IMVI 42.9 µM | A549 > 100 µM | EKVX > 100 µM | 786-0 53.7 µM

Cc1nn(C(=O)Cc2ccccc2)c2c1C(c1ccc([N+](=O)[O-])cc1)SC(=N)N2 (configuration not stated)
inactive: SK-MEL-28 > 100 µM | T47D > 100 µM | TK-10 > 100 µM | CCRF-CEM > 100 µM | HOP-62 > 100 µM | KM12 > 100 µM | NCI-H522 > 100 µM | SF-268 > 100 µM | MCF7 > 100 µM | Malme-3M > 100 µM | SF-295 > 100 µM | UACC-62 > 100 µM | RPMI-8226 > 100 µM | SK-MEL-5 > 100 µM | UACC-257 > 100 µM | LOX IMVI > 100 µM | A549 > 100 µM | EKVX > 100 µM | 786-0 > 100 µM

Nc1ncc2c(n1)-c1ccccc1OC2N1CCCCC1 (configuration not stated)
inactive: T47D > 100 µM | TK-10 > 100 µM | CCRF-CEM > 100 µM | KM12 > 100 µM | NCI-H522 > 100 µM | SF-268 > 100 µM | MCF7 > 100 µM | SNB-19 > 100 µM | SF-295 > 100 µM | UACC-62 > 100 µM | RPMI-8226 > 100 µM | SK-MEL-5 > 100 µM | UACC-257 > 100 µM | LOX IMVI > 100 µM | A549 > 100 µM | EKVX 95.1 µM | 786-0 > 100 µM

CCOC(=O)Nn1cnnc1C
inactive: T47D > 100 µM | TK-10 > 100 µM | CCRF-CEM > 100 µM | HOP-62 > 100 µM | KM12 > 100 µM | NCI-H522 > 100 µM | MCF7 > 100 µM | SNB-19 > 100 µM | Malme-3M > 100 µM | SF-295 > 100 µM | UACC-62 > 100 µM | RPMI-8226 > 100 µM | SK-MEL-5 > 100 µM | UACC-257 > 100 µM | LOX IMVI > 100 µM | A549 > 100 µM | EKVX > 100 µM | 786-0 > 100 µM

CCCCCCCCCCC/C=C(/C(=O)CCCO[Si](C)(C)C(C)(C)C)C(=O)OC
inactive: SK-MEL-28 > 100 µM | T47D > 100 µM | TK-10 > 100 µM | CCRF-CEM > 100 µM | HOP-62 > 100 µM | KM12 > 100 µM | NCI-H522 > 100 µM | SF-268 > 100 µM | MCF7 > 100 µM | SNB-19 > 100 µM | Malme-3M > 100 µM | SF-295 > 100 µM | UACC-62 > 100 µM | RPMI-8226 > 100 µM | SK-MEL-5 > 100 µM | UACC-257 > 100 µM | LOX IMVI > 100 µM | EKVX > 100 µM | 786-0 > 100 µM

N#CC1C(=S)NC(c2ccccc2)=CC12CCCCC2 (configuration not stated)
inactive: SK-MEL-28 34.4 µM | T47D 10.8 µM | TK-10 23 µM | CCRF-CEM 25.5 µM | KM12 22.9 µM | NCI-H522 22.1 µM | SF-268 66.8 µM | MCF7 21.9 µM | SNB-19 32.5 µM | Malme-3M 22.2 µM | UACC-62 20 µM | RPMI-8226 23.3 µM | SK-MEL-5 25.1 µM | UACC-257 64.7 µM | LOX IMVI 18.6 µM | A549 29.6 µM | EKVX 17.8 µM | 786-0 35 µM

Clc1cc(Cl)ncn1
inactive: SK-MEL-28 > 100 µM | T47D > 100 µM | TK-10 > 100 µM | CCRF-CEM > 100 µM | HOP-62 > 100 µM | KM12 > 100 µM | NCI-H522 > 100 µM | SF-268 > 100 µM | MCF7 > 100 µM | SNB-19 > 100 µM | Malme-3M > 100 µM | SF-295 > 100 µM | UACC-62 > 100 µM | RPMI-8226 40.9 µM | SK-MEL-5 > 100 µM | LOX IMVI > 100 µM | A549 > 100 µM | 786-0 > 100 µM

c1ccc(NNN2NC(c3ccccc3)C2c2ccccc2)cc1 (configuration not stated)
inactive: SK-MEL-28 > 100 µM | T47D > 100 µM | TK-10 > 100 µM | CCRF-CEM 59.6 µM | KM12 > 100 µM | NCI-H522 71.9 µM | SF-268 > 100 µM | MCF7 98.2 µM | SNB-19 > 100 µM | Malme-3M 28.9 µM | SF-295 > 100 µM | UACC-62 > 100 µM | RPMI-8226 > 100 µM | SK-MEL-5 > 100 µM | UACC-257 87.9 µM | LOX IMVI > 100 µM | A549 60 µM | EKVX > 100 µM | 786-0 > 100 µM
